# Data taken from patent US20160304957A1, “TREATMENT AND MODULATION OF GENE EXPRESSION AND SKIN AGING” (DSM NUTRITIONAL PRODUCTS LTD., priority 2006, published 2016).
# Test system: HaCaT human keratinocytes
# Assay: Affymetrix GeneChip microarray, transcriptional response to β-carotene and/or UVA
# Assay type: cell-based
# Conditions: β-carotene 1.5 μM
# Method: The cell culture experiments were carried out as described. Briefly, a subclone of passage 65 HaCaT keratinocytes, selected for differentiation capacity, was used at passages 16 to 23 after subcloning. 2×10^5 cells were seeded per 60 millimeter dish. Starting the following day, the cells were pretreated for 2 days with β-carotene at 1.5 μM, a typical concentration in human plasma after moderate dietary supplementation)
# β-carotene-containing medium was prepared as follows. Fresh all-E-β-carotene (DSM Nutritional Products, Kaiseraugst, Switzerland) stock solution in THF (containing 0.025% BHT; Fluka Chemie A G, Switzerland) was diluted 1:2 with ethanol and added to cell culture medium to a final concentration of 1.5 μM β-carotene. The solvent concentration in the medium was 0.5% for all treatments. β-carotene-containing medium was prepared fresh for the daily medium changes.
# On day 3 of the experiment, the cells were irradiated with a Hönle sun lamp Sol 500 (270 kJ/m^2; Dr. Hönle, Germany).
# Five independent, factorially designed cell irradiation experiments were analyzed by microarray hybridization. For each experiment, one chip was hybridized per treatment condition. GeneChip® analysis was done as described in [132], which is incorporated by reference, as if recited in full herein. Gene regulation by β-carotene and/or UVA was calculated relative to placebo.
# Changes in gene expression were included in further analysis only if the change factor was […], and if unpaired t-tests yielded p values≦0.05. Upregulations by a […] are labeled bold, downregulations by a change factor of […] are labeled bold italics. (Table 1) To identify the pathways affected by the treatments functional information on the genes was retrieved from public literature databases.
smiles,measurement,setting,value
"CC1=C(/C=C/C(C)=C/C=C/C(C)=C/C=C/C=C(C)/C=C/C=C(C)/C=C/C2=C(C)CCCC2(C)C)C(C)(C)CCC1 [β-carotene, All-E-β-carotene]","UVA induction of MMP-10, microarray","5 hours after UVA, UVA alone 4.6 fold",3.2 fold
same,5-aminolevulinate synthase (Y00451) change factor,unirradiated,0.08
same,AAC11 (U83857) change factor,unirradiated,−0.6
same,AP-2α (M36711) change factor,unirradiated,−0.02
same,ATF4; activating transcription factor 4 (AL022312) change factor,unirradiated,0.11
same,BAXγ (L22475) change factor,unirradiated,0.8
same,BAXδ (U19599) change factor,unirradiated,0.6
same,BMP2a; bone morphogenetic protein 2a (bmp-2a) (M22489) change factor,unirradiated,−1.2
same,BPAG1; bullous pemphigoid antigen (M69225) change factor,unirradiated,−0.5
same,BUB1; mitotic checkpoint kinase (AF053305) change factor,unirradiated,−0.5
same,C-FOS (V01512) change factor,unirradiated,−0.14
same,"C-FOS (V01512, second entry) change factor",unirradiated,−0.16
same,C-JUN (J04111) change factor,unirradiated,−0.06
same,C/EBPβ; NF-IL6 (X52560) change factor,unirradiated,−0.28
same,C/EBPγ (U20240) change factor,unirradiated,−0.09
same,C/EBPδ; NF-IL6-β (M83667) change factor,unirradiated,0.04
same,CDK activating kinase (X77743) change factor,unirradiated,−0.01
same,CDK-inhibitor p57KIP2 (KIP2) mrna (U22398) change factor,unirradiated,−0.22
same,CENP-A; centromere protein-A (U14518) change factor,unirradiated,−0.13
same,CENP-E; centromere protein-E (Z15005) change factor,unirradiated,−0.37
same,CENP-F; mitosin (U30872) change factor,unirradiated,−0.42
same,CEP110; centriole associated protein (AF083322) change factor,unirradiated,0.15
same,CIP2; CDKN3 (L25876) change factor,unirradiated,−0.18
same,"CLARP; CFLAR, alternatively spliced (AF005775) change factor",unirradiated,−0.09
same,COUP-TF II; ARP1; apoA1 regulatory protein (M64497) change factor,unirradiated,0.33
same,"COX-2, cyclooxygenase-2 (U04636) change factor",unirradiated,−1.2
same,CRADD; death domain containing protein (U84388) change factor,unirradiated,−0.25
same,DKK-1; dickkopf-1 (AB020315) change factor,unirradiated,−0.3
same,DNA ligase III (X84740) change factor,unirradiated,−0.5
same,DNA polymerase α-subunit (X06745) change factor,unirradiated,−0.43
same,DNA primase (subunit p58) (X74331) change factor,unirradiated,−0.16
same,"DNA-PK, catalytic subunit (U47077) change factor",unirradiated,−0.7
same,DSC2; desmocollin type 2a and 2b (X56807) change factor,unirradiated,−1.1
same,DUSP5 (U15932) change factor,unirradiated,−0.15
same,DUSP7 (X93921) change factor,unirradiated,−0.46
same,EGFR; precursor of epidermal growth factor receptor (X00588) change factor,unirradiated,−0.6
same,ENDOGL-2 (AB020735) change factor,unirradiated,0.8
same,ERBB3 precursor; similar to (H06628) change factor,unirradiated,0
same,ERCC5; excision repair protein (L20046) change factor,unirradiated,−0.48
same,ERF-2 (X78992) change factor,unirradiated,0.31
same,FGFR2; FGF receptor 2 (M87770) change factor,unirradiated,0.08
same,FGFR3; FGF receptor (M64347) change factor,unirradiated,−1.1
same,FRA-1 (X16707) change factor,unirradiated,0.14
same,FRA-2 (X16706) change factor,unirradiated,−0.7
same,GADD34 (U83981) change factor,unirradiated,−0.11
same,GADD153 (S62138) change factor,unirradiated,−0.45
same,GDF-1; growth/differentiation factor 1 (gdf-1) (M62302) change factor,unirradiated,−0.8
same,GEM (U10550) change factor,unirradiated,−2.6
same,HB-EGF; heparin-binding egf-like growth factor (M60278) change factor,unirradiated,0.33
same,HER3; epidermal growth factor receptor (her3) (M34309) change factor,unirradiated,−0.28
same,"HER3; epidermal growth factor receptor (her3) (M34309, second entry) change factor",unirradiated,−0.6
same,HM74; PAR1-related (D10923) change factor,unirradiated,0.18
same,HOXA7 (AJj005814) change factor,unirradiated,−0.43
same,HOXC6 (S82986) change factor,unirradiated,−0.07
same,HOXD4 (X59373) change factor,unirradiated,−0.5
same,ID1 (X77956) change factor,unirradiated,−0.01
same,"ID1 (X77956, second entry) change factor",unirradiated,−0.11
same,ID3; HEIR1 (AL021154) change factor,unirradiated,−0.43
same,ID-2H (D13891) change factor,unirradiated,−0.7
same,ID-4 (AL022726) change factor,unirradiated,−0.08
same,IEX-1 (S81914) change factor,unirradiated,−0.08
same,IFIT1; IFI56 (M24594) change factor,unirradiated,0
same,"IFIT1; IFI56 (M24594, second entry) change factor",unirradiated,0.05
same,IFIT2; ISG-54K (M14660) change factor,unirradiated,0.18
same,"IFIT2; ISG-54K (M14660, second entry) change factor",unirradiated,−0.21
same,IFIT4; IFI60; cig5; RIGG (AF026941) change factor,unirradiated,−0.23
same,IGF-BP 3; insulin-like growth factor-binding protein-3 gene (M35878) change factor,unirradiated,0.29
same,"IGF-BP 3; insulin-like growth factor-binding protein-3 gene (M35878, second entry) change factor",unirradiated,0.22
same,IL6; Interleukin 6; IFNβα2a (X04430) change factor,unirradiated,0.6
same,IL18; IGIF (IFNγ inducing factor) (D49950) change factor,unirradiated,−0.8
same,ILK; integrin-linked kinase (U40282) change factor,unirradiated,−0.23
same,IRF-1; interferon regulatory factor 1 (L05072) change factor,unirradiated,0.16
same,IRF-7b; interferon regulatory factor 7b (U53831) change factor,unirradiated,0.16
same,IRF-9; p48; ISGF3γ (M97935) change factor,unirradiated,−0.18
same,JUNB (M29039) change factor,unirradiated,−0.38
same,JUNB (X51345) change factor,unirradiated,−0.5
same,JUND (X56681) change factor,unirradiated,0.6
same,"JUND (X56681, second entry) change factor",unirradiated,0.01
same,"JUND (X56681, third entry) change factor",unirradiated,0
same,K-RAS (M54968) change factor,unirradiated,−0.6
same,KINESIN-LIKE 2; HSET (AL021366) change factor,unirradiated,−0.34
same,KINESIN-LIKE 2; HSET (D14678) change factor,unirradiated,−0.04
same,"KINESIN-LIKE 2; HSET (D14678, second entry) change factor",unirradiated,0.03
same,KINESIN-LIKE 5; KNSL5; MKLP-1; mitotic kinesin-like protein-1 (X67155) change factor,unirradiated,−0.15
same,KINESIN-LIKE 6; KNSL6; MCAK; mitotic centromere-associated kinesin (U63743) change factor,unirradiated,−0.15
same,KINESIN_LIKE 1; KNSL1; HKSP; EG5 (U37426) change factor,unirradiated,−0.04
same,KLF4; EZF (epithelial Zn finger) (U70663) change factor,unirradiated,−0.17
same,KRS-2; stress responsive serine/threonine protein kinase (U60207) change factor,unirradiated,−0.8
same,KU (p70/p80) (M30938) change factor,unirradiated,−0.18
same,LIM kinase 2 (limk-2) (D45906) change factor,unirradiated,−0.3
same,Lekti (AJ228139) change factor,unirradiated,0.48
same,MAD3L; mitotic checkpoint kinase (AF053306) change factor,unirradiated,−0.18
same,MAF-F (AL021977) change factor,unirradiated,−0.26
same,MAP kinase phosphatase (mkp-2) (U48807) change factor,unirradiated,0
same,MAPK9; JNK2 (U09759) change factor,unirradiated,−0.36
same,MAPK14; p38; csaids binding protein (csbp1) (L35263) change factor,unirradiated,−0.38
same,MAPKK3b; MKK3b (D87116) change factor,unirradiated,−0.06
same,MAPKK MEK5b (U71087) change factor,unirradiated,−0.16
same,MAPKKK5; ASK1 (U67156) change factor,unirradiated,−0.06
same,MEIS2 (AF017418) change factor,unirradiated,0.26
same,MMP10 (X07820) change factor,unirradiated,−1.3
same,MMP-1 (M13509) change factor,unirradiated,−1.61
same,MMP-3 (X05232) change factor,unirradiated,−0.46
